In US11498899B2, “Nitrone herbicides” (FMC Corporation, priority 2016, dated 2022):

What was measured:
[1] = tested on: foxtail, giant (giant foxtail, Setaria faberii); experiment: Test A preemergence, visual injury rating 0-100; format: in vivo
[2] = tested on: ryegrass, Italian (Italian ryegrass, Lolium multiflorum); experiment: Test A preemergence, visual injury rating 0-100; format: in vivo; details: 500 g ai/ha
[3] = tested on: pigweed (Amaranthus retroflexus); experiment: Test A preemergence, visual injury rating 0-100; format: in vivo
kochia (Kochia scoparia) [4] = experiment: Test A preemergence, visual injury rating 0-100; format: in vivo
[5] = tested on: ragweed (common ragweed, Ambrosia elatior); experiment: Test A preemergence, visual injury rating 0-100; format: in vivo
[6] = tested on: ducksalad (Heteranthera limosa); experiment: Test B flooded paddy test, visual rating 0-100; details: Flood, 250 g ai/ha, applied to paddy water, rated after 13 to 15 days
[7] = tested on: foxtail, giant (giant foxtail, Setaria faberii); experiment: Test A postemergence, visual injury rating 0-100; format: in vivo; details: 0 to 100 scale
[8] = tested on: blackgrass (Alopecurus myosuroides); experiment: Test A postemergence, visual injury rating 0-100; format: in vivo; details: 0 to 100 scale
[9] = tested on: ryegrass, Italian (Italian ryegrass, Lolium multiflorum); experiment: Test A postemergence, visual injury rating 0-100; format: in vivo; details: 0 to 100 scale
[10] = tested on: wheat (Triticum aestivum); experiment: Test A postemergence, visual injury rating 0-100; format: in vivo; details: 0 to 100 scale
[11] = tested on: pigweed (Amaranthus retroflexus); experiment: Test A postemergence, visual injury rating 0-100; format: in vivo; details: 0 to 100 scale
corn (Zea mays) = experiment: Test A postemergence, visual injury rating 0-100; format: in vivo; details: 0 to 100 scale
kochia (Kochia scoparia) [12] = experiment: Test A postemergence, visual injury rating 0-100; format: in vivo; details: 0 to 100 scale
[13] = tested on: galium (catchweed bedstraw, Galium aparine); experiment: Test A postemergence, visual injury rating 0-100; format: in vivo; details: 0 to 100 scale
[14] = tested on: ragweed (common ragweed, Ambrosia elatior); experiment: Test A postemergence, visual injury rating 0-100; format: in vivo; details: 0 to 100 scale
[15] = tested on: barnyardgrass (Echinochloa crus-galli); experiment: Test A postemergence, visual injury rating 0-100; format: in vivo; details: 0 to 100 scale
[16] = tested on: barnyardgrass (Echinochloa crus-galli); experiment: Test A preemergence, visual injury rating 0-100 (0 no effect, 100 complete control); format: in vivo
rice (Oryza sativa) = experiment: Test B flooded paddy test, visual rating 0-100 (0 no effect, 100 complete control); details: Flood, 250 g ai/ha, applied to paddy water, rated after 13 to 15 days
[17] = tested on: barnyardgrass (Echinochloa crus-galli); experiment: Test B flooded paddy test, visual rating 0-100; details: Flood, 250 g ai/ha, applied to paddy water, rated after 13 to 15 days

SMILES | Foxtail, Giant plant response rating (0 to 100 scale) ([1]; 125 g ai/ha) | Foxtail, Giant plant response rating (0 to 100 scale) ([1]; 500 g ai/ha) | Ryegrass, Italian plant response rating (0 to 100 scale) [2] | Pigweed plant response rating (0 to 100 scale) ([3]; 125 g ai/ha) | Pigweed plant response rating (0 to 100 scale) ([3]; 500 g ai/ha) | Kochia plant response rating (0 to 100 scale) (kochia (Kochia scoparia) [4]; 125 g ai/ha) | Kochia plant response rating (0 to 100 scale) (kochia (Kochia scoparia) [4]; 500 g ai/ha) | Ragweed plant response rating (0 to 100 scale) ([5]; 125 g ai/ha) | Ragweed plant response rating (0 to 100 scale) ([5]; 500 g ai/ha) | Ducksalad plant response rating (0 to 100 scale) [6] | Foxtail, Giant plant response rating ([7]; 125 g ai/ha) | Foxtail, Giant plant response rating ([7]; 500 g ai/ha) | Blackgrass plant response rating ([8]; 125 g ai/ha) | Blackgrass plant response rating ([8]; 500 g ai/ha) | Ryegrass, Italian plant response rating ([9]; 125 g ai/ha) | Ryegrass, Italian plant response rating ([9]; 500 g ai/ha) | Wheat plant response rating ([10]; 125 g ai/ha) | Wheat plant response rating ([10]; 500 g ai/ha) | Pigweed plant response rating ([11]; 125 g ai/ha) | Pigweed plant response rating ([11]; 500 g ai/ha) | further results
CC1=[N+]([O-])C(C(=O)Nc2cccc(F)c2F)C(c2ccc(Cl)c(C(F)(F)F)c2)C1 (racemic) [Compound 104] | 90 | 90 | 90 | 10 | 80 | 30 | 70 | 20 | 60 | 40 | 20 | 80 | 70 | 70 | 20 | 70 | 10 | 50 | 30 | 70 | Corn plant response rating (corn (Zea mays); 125 g ai/ha): 70; Corn plant response rating (corn (Zea mays); 500 g ai/ha): 60; Kochia plant response rating (kochia (Kochia scoparia) [12]; 125 g ai/ha): 50; Kochia plant response rating (kochia (Kochia scoparia) [12]; 500 g ai/ha): 70; Galium plant response rating ([13]; 125 g ai/ha): 30; Galium plant response rating ([13]; 500 g ai/ha): 70; Ragweed plant response rating ([14]; 125 g ai/ha): 20; Ragweed plant response rating ([14]; 500 g ai/ha): 70; Barnyardgrass plant response rating ([15]; 125 g ai/ha): 60; Barnyardgrass plant response rating ([15]; 500 g ai/ha): 80; Barnyardgrass plant response rating (0 to 100 scale) ([16]; 125 g ai/ha): 80; Barnyardgrass plant response rating (0 to 100 scale) ([16]; 500 g ai/ha): 90; Rice plant response rating (0 to 100 scale) (rice (Oryza sativa)): 0; Barnyardgrass plant response rating (0 to 100 scale) [17]: 40
CC1=[N+]([O-])C(C(=O)Nc2cccc(F)c2F)C(c2cccc(C3OCCO3)c2)C1 (racemic) [Compound 105] | 60 | 90 | 80 | 0 | 0 | 0 | 60 | 0 | 0 | 0 | 10 | 30 | 20 | 60 | 0 | 40 | 0 | 30 | 0 | 0 | Corn plant response rating (corn (Zea mays); 125 g ai/ha): 0; Corn plant response rating (corn (Zea mays); 500 g ai/ha): 40; Kochia plant response rating (kochia (Kochia scoparia) [12]; 125 g ai/ha): 0; Kochia plant response rating (kochia (Kochia scoparia) [12]; 500 g ai/ha): 0; Galium plant response rating ([13]; 125 g ai/ha): 30; Galium plant response rating ([13]; 500 g ai/ha): 40; Ragweed plant response rating ([14]; 125 g ai/ha): 0; Ragweed plant response rating ([14]; 500 g ai/ha): 40; Barnyardgrass plant response rating ([15]; 125 g ai/ha): 30; Barnyardgrass plant response rating ([15]; 500 g ai/ha): 80; Barnyardgrass plant response rating (0 to 100 scale) ([16]; 125 g ai/ha): 30; Barnyardgrass plant response rating (0 to 100 scale) ([16]; 500 g ai/ha): 90; Rice plant response rating (0 to 100 scale) (rice (Oryza sativa)): 0; Barnyardgrass plant response rating (0 to 100 scale) [17]: 0
CC1=[N+]([O-])C(C(=O)Nc2cccc(F)c2F)C(c2cccc(C(F)(F)F)c2C)C1 (racemic) [Compound 106] | 90 | 100 | 90 | 0 | 60 | 0 | 70 | 0 | 40 | 70 | 80 | 90 | 80 | 70 | 70 | 70 | 40 | 70 | 0 | 20 | Corn plant response rating (corn (Zea mays); 125 g ai/ha): 60; Corn plant response rating (corn (Zea mays); 500 g ai/ha): 90; Kochia plant response rating (kochia (Kochia scoparia) [12]; 125 g ai/ha): 0; Kochia plant response rating (kochia (Kochia scoparia) [12]; 500 g ai/ha): 30; Galium plant response rating ([13]; 125 g ai/ha): 40; Galium plant response rating ([13]; 500 g ai/ha): 70; Ragweed plant response rating ([14]; 125 g ai/ha): 30; Ragweed plant response rating ([14]; 500 g ai/ha): 70; Barnyardgrass plant response rating ([15]; 125 g ai/ha): 70; Barnyardgrass plant response rating ([15]; 500 g ai/ha): 90; Barnyardgrass plant response rating (0 to 100 scale) ([16]; 125 g ai/ha): 90; Barnyardgrass plant response rating (0 to 100 scale) ([16]; 500 g ai/ha): 90; Rice plant response rating (0 to 100 scale) (rice (Oryza sativa)): 0; Barnyardgrass plant response rating (0 to 100 scale) [17]: 60
CC1=[N+]([O-])C(C(=O)Nc2cccc(F)c2F)C(c2ccc(Cl)c(F)c2)C1 (racemic) [Compound 107] | 90 | 90 | 80 | 0 | 80 | 0 | 90 | 0 | 50 | 70 | 60 | 90 | 70 | 70 | 10 | 70 | 10 | 60 | 0 | 30 | Corn plant response rating (corn (Zea mays); 125 g ai/ha): 30; Corn plant response rating (corn (Zea mays); 500 g ai/ha): 80; Kochia plant response rating (kochia (Kochia scoparia) [12]; 125 g ai/ha): 20; Kochia plant response rating (kochia (Kochia scoparia) [12]; 500 g ai/ha): 20; Galium plant response rating ([13]; 125 g ai/ha): 70; Galium plant response rating ([13]; 500 g ai/ha): 70; Ragweed plant response rating ([14]; 125 g ai/ha): 30; Ragweed plant response rating ([14]; 500 g ai/ha): 60; Barnyardgrass plant response rating ([15]; 125 g ai/ha): 70; Barnyardgrass plant response rating ([15]; 500 g ai/ha): 90; Barnyardgrass plant response rating (0 to 100 scale) ([16]; 125 g ai/ha): 90; Barnyardgrass plant response rating (0 to 100 scale) ([16]; 500 g ai/ha): 90; Rice plant response rating (0 to 100 scale) (rice (Oryza sativa)): 0; Barnyardgrass plant response rating (0 to 100 scale) [17]: 40
CC1=[N+]([O-])C(C(=O)Nc2cccc(F)c2F)C(c2cc(C)cc(CF)c2)C1 (racemic) [Compound 108] | 90 | 100 | 90 | 0 | 70 | 20 | 90 | 0 | 70 | 0 | 70 | 90 | 90 | 90 | 40 | 70 | 30 | 70 | 0 | 20 | Corn plant response rating (corn (Zea mays); 125 g ai/ha): 60; Corn plant response rating (corn (Zea mays); 500 g ai/ha): 90; Kochia plant response rating (kochia (Kochia scoparia) [12]; 125 g ai/ha): 0; Kochia plant response rating (kochia (Kochia scoparia) [12]; 500 g ai/ha): 20; Galium plant response rating ([13]; 125 g ai/ha): 50; Galium plant response rating ([13]; 500 g ai/ha): 70; Ragweed plant response rating ([14]; 125 g ai/ha): 30; Ragweed plant response rating ([14]; 500 g ai/ha): 50; Barnyardgrass plant response rating ([15]; 125 g ai/ha): 70; Barnyardgrass plant response rating ([15]; 500 g ai/ha): 80; Barnyardgrass plant response rating (0 to 100 scale) ([16]; 125 g ai/ha): 90; Barnyardgrass plant response rating (0 to 100 scale) ([16]; 500 g ai/ha): 100; Rice plant response rating (0 to 100 scale) (rice (Oryza sativa)): 0; Barnyardgrass plant response rating (0 to 100 scale) [17]: 0
